≈ marks a conversion by molar mass, not a printed value.
conditions: buffer; pH 7.4; 200.0 µM

SMILES	solubility kinetic
Cc1cccc(C(=O)OC(C)CN2CCCC2)c1.Cl (stereo not drawn)	> 42.6 µg/mL
CCOC(=O)C1CCN(C(C)C(=O)c2c[nH]c3ccccc23)CC1 (stereo not drawn)	> 49.3 µg/mL
Cl.N=C(N)SCP(=O)(c1ccccc1)c1ccccc1	> 49 µg/mL
CCOC(=O)C1C2C=CC3(CN(Cc4ccccc4)C(=O)C13)O2 (stereo not drawn)	> 47 µg/mL
Cc1ccccc1C(=O)N1CCC(C(=O)NC2CCCCC2)CC1	44.4 µg/mL (≈ 135 µM)
O=C1CCCN1Cc1ccccc1	> 26.3 µg/mL
COc1ccc(NC(=O)Cc2cccc3ccccc23)cc1	2.9 µg/mL (≈ 9.95 µM)
CC(=O)Nc1ccc(NC(=O)COC(=O)C2CCC(C(C)(C)C)CC2)cc1 (stereo not drawn)	3.7 µg/mL (≈ 9.88 µM)
CCNC(=S)Nc1sc2c(c1C#N)CCC(C)C2 (stereo not drawn)	1.1 µg/mL (≈ 3.94 µM)
O=C(CN1CCCCC1)c1c[nH]c2ccccc12	> 36.3 µg/mL
CCN1CCN(c2ccc(S(=O)(=O)N3CCOCC3)cc2NC(=O)c2cccc([N+](=O)[O-])c2)CC1	> 75.5 µg/mL
Cc1cccc(/C(N)=N/OC(=O)CCCc2ccccc2)c1	1.8 µg/mL (≈ 6.07 µM)
COC(=O)c1ccccc1NC(=O)c1ccc2c(c1)OCCCO2	4.1 µg/mL (≈ 12.5 µM)
O=C(/N=C1\NC(=O)C(F)(C(F)(F)F)S1)NC1CCCCC1 (stereo not drawn)	> 49.1 µg/mL
CC(C)C(NC(=O)c1ccc(F)cc1)C(=O)NCC1CCCO1 (stereo not drawn)	> 48.4 µg/mL
O=C(c1cccc([N+](=O)[O-])c1)N1CCCC(C(=O)N2CCCCCC2)C1 (stereo not drawn)	> 53.9 µg/mL
Cc1ccc[n+](CC(=O)Nc2cccc(Cl)c2)c1.[Cl-]	> 44.6 µg/mL
COc1ccccc1C(=O)Nc1nc2ccccc2[nH]1	4.2 µg/mL (≈ 15.7 µM)

SMILES	solubility kinetic
O=C(Cc1c(F)cccc1Cl)N(Cc1ccccc1)c1ccccn1	37.3 µg/mL (≈ 105 µM)
Oc1ccc(N=Cc2c(O)ccc3ccccc23)cc1	< 0.6 µg/mL
CC(C)N(Cc1ccccc1)C(=O)c1cccs1	> 38.9 µg/mL
CCCC(=O)NC(=S)Nc1cccc(Cl)c1N1CCCC1	0.5 µg/mL (≈ 1.53 µM)
O=[N+]([O-])/C=C1\NCCN1Cc1ccc(Cl)nc1	35.8 µg/mL (≈ 141 µM)
O=C(NCc1csc2ccc(Cl)cc12)Nc1ccccc1	< 0.3 µg/mL
O=C(Cc1ccc(F)cc1)Nc1nc(-c2ccc(F)cc2)cs1	< 0.4 µg/mL
CNC(=O)Nc1ccc(C(O)(C(=O)OC)C(F)(F)F)cc1 (stereo not drawn)	> 45.9 µg/mL
CCCSc1ncccc1C(=O)O	> 29.6 µg/mL
O=C(O)CC[N+](=O)[O-]	> 17.9 µg/mL
CCC(C(=O)Nc1cccnc1Cl)c1ccccc1 (stereo not drawn)	30.2 µg/mL (≈ 110 µM)
CNS(=O)(=O)c1ccc2c3c(cccc13)C(=O)N2	27.7 µg/mL (≈ 106 µM)
O=C1CC(NCc2ccc(F)cc2)C(=O)N1c1ccccc1 (stereo not drawn)	43.6 µg/mL (≈ 146 µM)
CC1CCCCC1NC(=O)COC(=O)CNC(=O)c1cccc(F)c1 (stereo not drawn)	51.2 µg/mL (≈ 146 µM)
COc1ccc2[nH]c(C(=O)NCCN3CCCCC3)cc2c1	39.7 µg/mL (≈ 132 µM)
O=C(Nc1ccc2c(c1)OCO2)c1cnccn1	19.5 µg/mL (≈ 80.2 µM)
CC(=O)N1CCN(C(=O)CCCNC(=O)c2ccc(Cl)cc2)CC1	> 52.8 µg/mL

Other lines, results leading:

solubility kinetic	SMILES
42 µg/mL (≈ 129 µM)	CCS(=O)(=O)N1CCCC(C(=O)c2ccc(OC)cc2C)C1 (stereo not drawn)
> 49 µg/mL	CC(=O)Nc1c(-c2ccccc2Cl)c(=O)c2ccccc2n1C
2.8 µg/mL (≈ 7.62 µM)	CCOC(=O)CNC(=O)CSc1nc(-c2ccc(OC)cc2)ns1
> 49.9 µg/mL	CC(C)N(C(=O)Cn1cnc2cc([N+](=O)[O-])ccc2c1=O)C(C)C
29.2 µg/mL (≈ 137 µM)	COC(=O)c1c(NC(C)=O)csc1C
37.2 µg/mL (≈ 111 µM)	O=S(=O)(Cc1noc(-c2ccccc2Cl)n1)c1ccccn1
> 40.6 µg/mL	CC(C)CCc1c(O)nc(SCC(C)C)[nH]c1=O
< 0.7 µg/mL	Cc1ccc(-c2ccc(S(=O)(=O)N3CC(C)OC(C)C3)cc2)cc1 (stereo not drawn)
34.2 µg/mL (≈ 64.8 µM)	COc1ccc(CNC(=O)COC(=O)c2ccc(Br)c(S(=O)(=O)N3CCOCC3)c2)cc1
5.5 µg/mL (≈ 17.6 µM)	COc1ccc(-c2csc(Nc3ccccn3)n2)cc1OC
29.1 µg/mL (≈ 93.2 µM)	c1ccc(CNc2nc(-c3ccccn3)nc3ccccc23)cc1
40.1 µg/mL (≈ 143 µM)	COCc1cc(Sc2ccc(Cl)cc2)nc(C)n1
> 41.6 µg/mL	Cc1ccc(S(=O)(=O)c2c(C)cc(C)[nH]c2=O)cc1
13.5 µg/mL (≈ 42 µM)	CCn1cc([N+](=O)[O-])c(=O)c2cc(F)c(N3CCOCC3)cc21
> 50.6 µg/mL	Cc1c(C(=O)N2CCN(C)CC2)oc2ccc(Br)cc12
> 39.2 µg/mL	CCc1c(C)nc(SCc2cccnc2)[nH]c1=O
> 44.6 µg/mL	Cc1ccc(OCC(=O)NC2CCS(=O)(=O)C2)c(C)c1 (stereo not drawn)
0.4 µg/mL (≈ 1.16 µM)	CCN(CC)CC(=O)Nc1sc(C)cc1C(=O)c1ccc(C)cc1
< 0.8 µg/mL	Cc1ccc(C(=O)O/N=C2/CC3CCC2(C)[C@@]3(C)CBr)cc1 (stereo partly drawn)
39.4 µg/mL (≈ 144 µM)	CC(O)C(NC=C1C(=O)OC(C)(C)OC1=O)C(=O)O (stereo not drawn)
0.8 µg/mL (≈ 2.39 µM)	Cc1nc(-c2ccc(NC(=O)C(C)(C)C)cc2)c(-c2ccccc2)o1
48.2 µg/mL	C[C@]12C=CC(=O)C=C1CC[C@@H]1C2=CC[C@]2(C)[C@@H](C(=O)CN3CCN(c4cc(N5CCCC5)nc(N5CCCC5)n4)CC3)CC[C@@H]12.O=C(O)/C=C\C(=O)O
> 51.2 µg/mL	C=CCn1c(C)nc2c(sc3nc4c(cc32)COC(C)(C)C4)c1=O

Source: PubChem BioAssay AID1996
